Active and inactive are the calls of the source. The calls are words filed in the database; no cut-off is given here.
What was measured:
[1] = target: C-C chemokine receptor type 2 (Homo sapiens, UniProt P41597); assay: Antagonist activity at human CCR2; assay type: functional
[2] = target: T1, Voltage-gated inwardly rectifying potassium channel KCNH2 (Homo sapiens, UniProt Q12809); assay: Inhibition of human ERG
[3] = Cmax in mouse at 10 mg/kg, po; assay type: ADME, organism-based; parameters: dose 10 mg/kg, route oral; conditions: in vivo
[4] = AUC in mouse at 10 mg/kg, po; assay type: ADME, organism-based; parameters: dose 10 mg/kg, route oral; conditions: plasma
[5] = Half life in mouse at 10 mg/kg, po; assay type: ADME, organism-based; parameters: dose 10 mg/kg, route oral; conditions: in vivo
[6] = Oral bioavailability in mouse at 10 mg/kg; assay type: ADME, organism-based; conditions: in vivo
[7] = Initial plasma concentration in mouse at 2 mg/kg, iv; assay type: ADME, organism-based; parameters: dose 2 mg/kg, route intravenous
[8] = Volume of distribution at steady state in mouse at 2 mg/kg, iv; assay type: ADME, organism-based; parameters: dose 2 mg/kg, route intravenous; conditions: in vivo, read-out: Vdss
[9] = Clearance in mouse at 2 mg/kg, iv; assay type: ADME, organism-based; parameters: dose 2 mg/kg, route intravenous; conditions: in vivo
[10] = Half life in mouse at 2 mg/kg, iv; assay type: ADME, organism-based; parameters: dose 2 mg/kg, route intravenous; conditions: in vivo
[11] = target: T1, Voltage-gated inwardly rectifying potassium channel KCNH2; assay: Binding affinity to human ERG
[12] = target: T1, Voltage-gated inwardly rectifying potassium channel KCNH2; assay: Inhibition of human ERG by patch clamp assay
Cavia porcellus [13] = assay: Cardiotoxicity in guinea pig hemodynamic model assessed as mean arterial pressure at 10 mg/kg, iv; assay type: toxicity, organism-based, Artery; parameters: dose 10 mg/kg, route intravenous; conditions: in vivo
Cavia porcellus [14] = assay: Cardiotoxicity in guinea pig hemodynamic model assessed as heart rate at 10 mg/kg, iv; assay type: toxicity, organism-based; parameters: dose 10 mg/kg, route intravenous; conditions: in vivo
Cavia porcellus [15] = assay: Cardiotoxicity in guinea pig hemodynamic model assessed as QT interval at 10 mg/kg, iv; assay type: toxicity, organism-based; parameters: dose 10 mg/kg, route intravenous; conditions: in vivo
Cavia porcellus [16] = assay: Cardiotoxicity in guinea pig hemodynamic model assessed as QTc at 10 mg/kg, iv; assay type: toxicity, organism-based; parameters: dose 10 mg/kg, route intravenous; conditions: in vivo
Cavia porcellus [17] = assay: Cardiotoxicity in guinea pig hemodynamic model assessed as QRS duration at 10 mg/kg, iv; assay type: toxicity, organism-based; parameters: dose 10 mg/kg, route intravenous; conditions: in vivo
Cavia porcellus [18] = assay: Cardiotoxicity in guinea pig hemodynamic model assessed as PR interval at 10 mg/kg, iv; assay type: toxicity, organism-based; parameters: dose 10 mg/kg, route intravenous; conditions: in vivo
[19] = target: C-C chemokine receptor type 2 (Mus musculus) (UniProt P51683); assay: Antagonist activity at mouse CCR2; assay type: functional
Mus musculus = assay: Antiinflammatory activity in human CCR2 transgenic C57BL/6 mouse assessed as reduction of thioglycollate-induced peritonitis at 30 mg/kg, po; assay type: functional, organism-based; parameters: dose 30 mg/kg

T1 sequence (Q12809 whole entry): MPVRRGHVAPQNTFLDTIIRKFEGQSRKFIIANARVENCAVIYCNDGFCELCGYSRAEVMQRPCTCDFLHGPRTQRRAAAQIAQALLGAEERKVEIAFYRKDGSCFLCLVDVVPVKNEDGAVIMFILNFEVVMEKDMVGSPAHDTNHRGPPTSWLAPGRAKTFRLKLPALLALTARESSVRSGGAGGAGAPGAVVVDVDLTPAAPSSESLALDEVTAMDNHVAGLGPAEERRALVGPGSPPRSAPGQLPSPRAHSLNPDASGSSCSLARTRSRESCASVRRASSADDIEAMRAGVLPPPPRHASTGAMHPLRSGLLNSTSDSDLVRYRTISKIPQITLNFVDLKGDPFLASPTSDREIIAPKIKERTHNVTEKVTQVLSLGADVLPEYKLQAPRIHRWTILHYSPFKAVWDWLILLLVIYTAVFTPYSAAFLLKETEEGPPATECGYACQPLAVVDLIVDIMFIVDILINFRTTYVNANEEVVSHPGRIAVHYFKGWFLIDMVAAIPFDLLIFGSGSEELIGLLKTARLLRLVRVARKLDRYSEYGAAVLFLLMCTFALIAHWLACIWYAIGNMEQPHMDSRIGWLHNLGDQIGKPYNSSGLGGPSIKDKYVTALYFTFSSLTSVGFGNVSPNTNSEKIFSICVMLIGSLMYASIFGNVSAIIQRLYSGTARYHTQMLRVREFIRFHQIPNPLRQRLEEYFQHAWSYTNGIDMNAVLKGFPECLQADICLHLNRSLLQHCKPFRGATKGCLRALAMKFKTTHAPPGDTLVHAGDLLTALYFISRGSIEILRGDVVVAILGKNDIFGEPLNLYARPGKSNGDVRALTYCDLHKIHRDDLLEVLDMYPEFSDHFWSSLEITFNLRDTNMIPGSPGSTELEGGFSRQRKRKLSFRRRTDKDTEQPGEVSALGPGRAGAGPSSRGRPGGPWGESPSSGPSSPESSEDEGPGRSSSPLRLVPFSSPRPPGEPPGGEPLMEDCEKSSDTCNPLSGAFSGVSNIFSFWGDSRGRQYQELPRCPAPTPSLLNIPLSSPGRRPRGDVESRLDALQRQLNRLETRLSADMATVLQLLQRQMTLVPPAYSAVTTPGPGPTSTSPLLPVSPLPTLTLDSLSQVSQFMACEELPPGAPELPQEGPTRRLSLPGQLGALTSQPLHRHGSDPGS
C-C chemokine receptor type 2, sequence (P41597 whole entry): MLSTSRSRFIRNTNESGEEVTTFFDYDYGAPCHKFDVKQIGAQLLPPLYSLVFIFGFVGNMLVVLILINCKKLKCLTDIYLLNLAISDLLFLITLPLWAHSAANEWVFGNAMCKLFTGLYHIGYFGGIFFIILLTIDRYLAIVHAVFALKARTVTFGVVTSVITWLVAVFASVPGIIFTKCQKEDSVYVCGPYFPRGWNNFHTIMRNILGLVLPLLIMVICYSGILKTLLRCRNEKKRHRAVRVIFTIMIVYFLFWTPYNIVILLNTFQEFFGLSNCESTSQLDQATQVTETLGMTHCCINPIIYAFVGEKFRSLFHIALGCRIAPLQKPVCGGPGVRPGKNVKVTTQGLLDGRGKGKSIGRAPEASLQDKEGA
C-C chemokine receptor type 2 (Mus musculus), sequence (P51683 whole entry, looked up): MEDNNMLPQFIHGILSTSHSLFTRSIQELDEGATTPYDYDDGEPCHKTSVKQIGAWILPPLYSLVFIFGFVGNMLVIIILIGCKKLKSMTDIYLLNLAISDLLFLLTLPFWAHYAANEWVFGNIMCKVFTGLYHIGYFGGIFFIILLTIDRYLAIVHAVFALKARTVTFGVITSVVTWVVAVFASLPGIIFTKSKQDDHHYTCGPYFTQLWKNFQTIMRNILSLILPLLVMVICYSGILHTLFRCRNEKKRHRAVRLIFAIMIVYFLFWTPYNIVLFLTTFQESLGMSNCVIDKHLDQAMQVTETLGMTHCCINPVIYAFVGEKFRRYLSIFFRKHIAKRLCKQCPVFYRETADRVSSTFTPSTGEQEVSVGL

NC(=O)C(NC1CCC(c2ccccc2)C1)C1CCN(C(=O)/C=C/c2cc(F)c(F)c(F)c2)CC1 (centres undefined)
IC50 [1]: 1300 nM

NC(=O)C(NC1CCC(c2c[nH]c3cnccc23)CC1)C1CCN(C(=O)/C=C/c2cc(F)c(F)c(F)c2)CC1 (centres undefined)
IC50 [1]: 2200 nM | INH [2]: < 0.2 µM

NC(=O)C(NC1CCC(c2c[nH]c3ncccc23)CC1)C1CCN(C(=O)/C=C/c2cc(F)c(F)c(F)c2)CC1 (centres undefined)
INH [2]: 8.3 µM

NC(=O)C(NC1CCC(c2c[nH]c3ccccc23)CC1)C1CCN(C(=O)/C=C/c2ccc(C(F)(F)F)cc2)CC1 (centres undefined)
INH [2]: 1.08 µM

NC(=O)C(NC1CCC(c2c[nH]c3ccccc23)CC1)C1CCN(C(=O)/C=C/c2ccc(OC(F)(F)F)cc2)CC1 (centres undefined)
INH [2]: 1.39 µM

NC(=O)C(NC1CCC(c2c[nH]c3ccccc23)CC1)C1CCN(C(=O)CCc2ccccc2)CC1 (centres undefined)
IC50 [1]: > 25000 nM

NC(=O)C(NC1CCC(c2c[nH]c3ccccc23)CC1)C1CCN(C(=O)/C=C/c2cc(F)c(F)c(F)c2)CC1 (centres undefined)
INH [2]: 3.3 µM

NC(=O)C(NC1CCC(c2c[nH]c3ccccc23)CC1)C1CCN(C(=O)/C=C/c2ccccc2)CC1 (centres undefined)
INH [2]: 7.35 µM

NC(=O)C(NC1CCC(c2c[nH]c3ccccc23)CC1)C1CCN(C(=O)/C=C/c2cc(F)cc(F)c2)CC1 (single isomer, unassigned; (-))
INH [2]: 20.375 µM

O=C(O)C(C1CCN(C(=O)/C=C/c2cc(F)c(F)c(F)c2)CC1)N1CCC(c2c[nH]c3ccccc23)CC1 (centres undefined)
INH [2]: 1.5 µM

NC(=O)C(NC1CCC(c2c[nH]c3ccccc23)CC1)C1CCN(C(=O)/C=C/c2ccc(Cl)cc2)CC1 (centres undefined)
INH [2]: 0.87 µM

NC(=O)C(NC1Cc2ccccc2C1)C1CCN(C(=O)/C=C/c2cc(F)c(F)c(F)c2)CC1 (centres undefined)
IC50 [1]: 1400 nM

CS(=O)(=O)c1ccc(/C=C/C(=O)N2CCC(C(NC3CCC(c4c[nH]c5ccccc45)CC3)C(N)=O)CC2)cc1 (centres undefined)
IC50 [1]: 11600 nM | INH [2]: > 50 µM

COC(=O)C(NC1CCC(c2c[nH]c3ccccc23)CC1)C1CCN(C(=O)/C=C/c2cc(F)c(F)c(F)c2)CC1 (centres undefined)
IC50 [1]: 900 nM | INH [2]: 2.2 µM

CC(C)C1CCC(NC(C(N)=O)C2CCN(C(=O)/C=C/c3cc(F)c(F)c(F)c3)CC2)CC1 (centres undefined)
IC50 [1]: 15800 nM | INH [2]: 6.2 µM

COc1ccc(C2CCC(NC(C(N)=O)C3CCN(C(=O)/C=C/c4cc(F)c(F)c(F)c4)CC3)CC2)cn1 (centres undefined)
INH [2]: 11.7 µM

NC(=O)C(NC1CCc2ccccc21)C1CCN(C(=O)/C=C/c2cc(F)c(F)c(F)c2)CC1 (centres undefined)
IC50 [1]: 2300 nM

CNC(=O)C(NC1CCC(c2c[nH]c3ccccc23)CC1)C1CCN(C(=O)/C=C/c2cc(F)c(F)c(F)c2)CC1 (centres undefined)
INH [2]: 5.4 µM

NC(=O)C(NC1CCC(c2c[nH]c3ccccc23)CC1)C1CCN(C(=O)/C=C/c2ccc(F)cc2)CC1 (centres undefined)
IC50 [1]: 36 nM | INH [2]: 2.02 µM

O=C(/C=C/c1cc(F)c(F)c(F)c1)N1CCC(CNC2CCC(c3c[nH]c4ccccc34)CC2)CC1 (centres undefined)
IC50 [1]: 25000 nM

CC(NC1CCC(c2c[nH]c3ccccc23)CC1)C1CCN(C(=O)/C=C/c2cc(F)c(F)c(F)c2)CC1 (centres undefined)
IC50 [1]: 8600 nM | INH [2]: 0.29 µM

NC(=O)C(NC1CCC(c2c[nH]c3cccnc23)CC1)C1CCN(C(=O)/C=C/c2cc(F)c(F)c(F)c2)CC1 (centres undefined)
IC50 [1]: 35 nM | INH [2]: 6.3 µM

NC(=O)C(NC1CCC(C2CNc3ccccc32)CC1)C1CCN(C(=O)/C=C/c2cc(F)c(F)c(F)c2)CC1 (centres undefined)
IC50 [1]: 950 nM | INH [2]: 4.2 µM

CN(C)C(=O)C(NC1CCC(c2c[nH]c3ccccc23)CC1)C1CCN(C(=O)/C=C/c2cc(F)c(F)c(F)c2)CC1 (centres undefined)
INH [2]: 4.4 µM

NC(=O)C(NC1CCC(c2c[nH]c3ccccc23)CC1)C1CCN(C(=O)/C=C/c2cc(F)cc(F)c2)CC1 (trans isomer)
INH [2]: 6.6 µM

NC(=O)C(NC1CCC(c2c[nH]c3ccccc23)CC1)C1CCN(C(=O)Cc2ccccc2)CC1 (centres undefined)
IC50 [1]: > 25000 nM | INH [2]: 17.636 µM

O=C(/C=C/c1cc(F)c(F)c(F)c1)N1CCC(C(CO)NC2CCC(c3c[nH]c4ccccc34)CC2)CC1 (centres undefined)
IC50 [1]: 9200 nM | INH [2]: 0.52 µM

NC(=O)C(NC1CCC(c2c[nH]c3ccccc23)CC1)C1CCN(C(=O)/C=C/c2ccc(F)c(F)c2)CC1 (centres undefined)
IC50 [1]: 38 nM | INH [2]: 1.714 µM

NC(=O)C(NC1CCC(c2c[nH]c3ccccc23)CC1)C1CCN(C(=O)/C=C/c2cc(F)cc(F)c2)CC1 (racemic) [listing 1 of 2 here]
INH [2]: 4.906 µM | Cmax [3]: 531 ng/mL | AUC [4]: 2420 ng·h/mL | half-life [5]: 2.4 h | bioavailability [6]: 50% | C0 [7]: 1020 ng/mL | Vd [8]: 3.71 L/kg | clearance [9]: 31 mL/min/kg | half-life [10]: 1.9 h | INH [11]: 8 µM | INH [12]: 600 nM | Activity (Cavia porcellus [13]): Non-toxic | Activity (Cavia porcellus [14]): Non-toxic | Activity (Cavia porcellus [15]): Non-toxic | Activity (Cavia porcellus [16]): Non-toxic | Activity (Cavia porcellus [17]): Non-toxic | Activity (Cavia porcellus [18]): Non-toxic

NC(=O)C(NC1CCC(c2c[nH]c3ccccc23)CC1)C1CN(C(=O)/C=C/c2cc(F)c(F)c(F)c2)C1 (centres undefined)
IC50 [1]: > 25000 nM

NC(=O)C(NC1CCC(c2ccccc2)CC1)C1CCN(C(=O)/C=C/c2cc(F)c(F)c(F)c2)CC1 (centres undefined)
IC50 [1]: 6000 nM | INH [2]: 3.4 µM

CN(C)c1ccc(/C=C/C(=O)N2CCC(C(NC3CCC(c4c[nH]c5ccccc45)CC3)C(N)=O)CC2)cc1 (centres undefined)
IC50 [1]: 1890 nM | INH [2]: > 50 µM

NC(=O)C(NC1CCC(c2c[nH]c3ccccc23)CC1)C1CCN(C(=O)/C=C\c2cc(F)cc(F)c2)CC1 (cis isomer)
INH [2]: 2.2 µM

NC(=O)C(NC1CCC(c2c[nH]c3ccccc23)CC1)C1CCN(C(=O)Nc2ccccc2)CC1 (centres undefined)
IC50 [1]: 9570 nM | INH [2]: 14.784 µM

NC(=O)C(NC1CCC(c2c[nH]c3ccccc23)CC1)C1CCN(C(=O)/C=C/c2ccccc2F)CC1 (centres undefined)
INH [2]: 4.128 µM

NC(=O)C(NC1CCC(c2c[nH]c3ccccc23)CC1)C1CCN(C(=O)/C=C/c2cccc(F)c2)CC1 (centres undefined)
IC50 [1]: 64 nM | INH [2]: 2.076 µM

NC(=O)C(NC1CCC(c2c[nH]c3ccncc23)CC1)C1CCN(C(=O)/C=C/c2cc(F)c(F)c(F)c2)CC1 (centres undefined)
IC50 [1]: 83 nM | INH [2]: 0.97 µM

NC(=O)C(NC1CCC(c2c[nH]c3ccccc23)CC1)C1CCN(C(=O)/C=C/c2c(F)cccc2F)CC1 (centres undefined)
IC50 [1]: > 25000 nM | INH [2]: 3.734 µM

O=C1NC2(CCC(c3c[nH]c4ccccc34)CC2)NC1C1CCN(C(=O)/C=C/c2cc(F)c(F)c(F)c2)CC1 (centres undefined)
IC50 [1]: 5200 nM

NC(=O)C(NC1CCC(c2c[nH]c3ccccc23)CC1)C1CCN(Cc2ccccc2)CC1 (centres undefined)
IC50 [1]: > 25000 nM | INH [2]: 1.769 µM

O=C(NO)C(NC1CCC(c2c[nH]c3ccccc23)CC1)C1CCN(C(=O)/C=C/c2cc(F)c(F)c(F)c2)CC1 (centres undefined)
INH [2]: 41 µM

NC(=O)C(NC1CCC(c2c[nH]c3ccccc23)CC1)C1CCN(C(=O)c2ccccc2)CC1 (centres undefined)
IC50 [1]: > 25000 nM | INH [2]: 5.471 µM

NC(=O)C(NC1CCP(=O)(c2ccccc2)CC1)C1CCN(C(=O)/C=C/c2cc(F)c(F)c(F)c2)CC1 (centres undefined)
IC50 [1]: > 25000 nM

NC(=O)C(NC1CCC(c2c[nH]c3ccccc23)CC1)C1CCN(C(=O)C2CC2c2ccccc2)CC1 (mixture of isomers)
IC50 [1]: 1300 nM

O=C(O)C(NC1CCC(c2c[nH]c3ccccc23)CC1)C1CCN(C(=O)/C=C/c2cc(F)c(F)c(F)c2)CC1 (centres undefined)
IC50 [1]: 50 nM | INH [2]: 31 µM

CN(C1CCC(c2c[nH]c3ccccc23)CC1)C(C(=O)O)C1CCN(C(=O)/C=C/c2cc(F)c(F)c(F)c2)CC1 (centres undefined)
IC50 [1]: 8100 nM

NC(=O)C(NC1CCC(c2c[nH]c3ccccc23)CC1)C1CCN(C(=O)/C=C/c2cc(F)cc(F)c2)CC1 (racemic) [listing 2 of 2 here]
inhibition [19]: inactive | Activity (Mus musculus): Active

Source: ChEMBL document CHEMBL1921678, “The discovery of novel cyclohexylamide CCR2 antagonists” (Bioorg Med Chem Lett, 2011)
